Assay [1] addresses KRAS-G12C/SOS1 (Homo sapiens (Human), UniProt Q07889). The assay can be described thus: Detection of inhibitory effects of compounds on KRAS-G12C/SOS1 (KRASG12C/SOS binding kit, HTRF). To be noted: Em665/620, read-out: IC50, inhibitory activity on interaction of KRAS-G12C/SOS1. From the text: Experimental objective: The inhibitory effects of the tested compounds on KRAS-G12C/SOS1 were detected. IC50 was used to characterize the inhibitory ability of the compounds on the KRAS-G12C/SOS1. The lower IC50 value indicated the stronger inhibitory ability. BI-3406 was used as a positive control compound.
Experimental reagents: KRASG12C/SOS binding kit (Cisbio, cat. 63ADK000CB16PEG); DMSO (Sigma, cat. D8418-1L); and 384-well white plate (PerkinElmer, cat. 6007290)
• 1. Preparation of compounds: the test compounds were dissolved in 100% DMSO to obtain 10 mM stock solutions and the stock solutions were stored in a refrigerator in the dark. • 2. Kinase reaction process:
Preparation of compounds: the test compounds had the concentration of 5,000 nM and diluted in a 384-well plate into a 100% DMSO solution at the 200-fold final concentration, and the compounds were diluted 3-fold with 10 concentrations. 50 nL of the compounds at the 200-fold final concentration were transferred to the plate of interest, the 384-well plate, using a dispenser Echo 550. 50 nL of 100% DMSO was added to each negative control well and positive control well.
A Tag1-SOS1 solution at the 4-fold final concentration was prepared using a diluent buffer.
2.5 μL of the Tag1-SOS1 solution at the 4-fold final concentration was added to the 384-well plate.
A Tag2-KRAS-G12C solution at the 4-fold final concentration was prepared using the diluent buffer.
2.5 μL of the Tag2-KRAS-G12C solution at the 4-fold final concentration was respectively added into compound wells and the positive control wells; and 2.5 μL of the diluent buffer was added to the negative control wells.
The 384-well plate was centrifuged at 1,000 rpm for 30 seconds, shaken and mixed uniformly, and incubated at room temperature for 15 minutes.
An Anti-Tag1-TB3+ solution at the 1-fold final concentration and an Anti-Tag2-XL665 solution at the 1-fold final concentration were prepared using a detection buffer, the two solutions were mixed uniformly to obtain a Mix solution, and 5 μL of the Mix solution was added into each well.
The 384-well plate was centrifuged at 1,000 rpm for 30 seconds, shaken and mixed uniformly, and incubated at 4° C. for 120 minutes.
Em665/620 was read using an Envision microplate reader.
Inhibition %=(Max signal−Compound signal)/(Max signal−Min signal)×100 Calculation formula • wherein the Min signal was the mean value of the negative control wells, and the Max signal was the mean value of the positive control wells.
A dose-response curve was fitted using the log value of the concentration as an X axis and the percentage of the inhibitory rate as a Y axis by using the log(inhibitor) vs. response-variable slope of an analytical software GraphPadPrism5, thereby obtaining the IC50 value of each compound on an enzyme activity.

For assay [2], the system named is p-ERK of PC-9 cells. The assay is described as follows: p-ERK HTRF assay in PC-9 cells. It is filed as cell-based. As to conditions: Homo sapiens, PC-9, 1 h, PC-9 lung cancer cells, 1 hour treatment, read-out: IC50, inhibitory activity on p-ERK of PC-9 cells. As for the experimental part:
IC50 Values of Compounds Determined by p-ERK HTRF Assay in PC-9 Cells
Experimental objective: an inhibitory effect of the test compounds on the phosphorylation of PC-9ERK of lung cancer cells at a cellular level was evaluated by detecting the phosphorylation of ERK.
• PRMI 1640 medium (Invitrogen-11875093) • 0.25% pancreatin (Invitrogen-25200056) • Phosphoric acid buffer salt solution (PBS, pH 7.4) (Invitrogen-10010023) • Double-antibody (PS) (Invitrogen-15140122) • Fetal bovine serum (FBS) (Gibco-10091148) • Trypan blue (Gibco-15250061) • 10-cm culture dish (Corning-430167) • 10-mL pipette (Costar-4488) • Pipettor (Sartorius-17009031) • 15-mL centrifuge tube (Corning-430052) • 50-mL centrifuge tube (Corning-430829) • Cryotube (Thermo-377267) • 1.5-mL EP tube (Axygen-MCT-150-C-S) • Cell incubator (Thermo-371) • Microscope (Olympus-CKX41) • Centrifuge (Flying Pigeon-TDL-80-2B) • Cell counter (Countstar-IC-1000) • Envision (Perkin Elmer) • Spark 10M (TECAN) • Phospho-ERK1/2 (Thr202/Tyr204) Experimental kit (Cisbio, Cat. No. 64AERPEG) • PC-9 cells: RPMI1640+10% FBS+1% PS
• 1) PBS, 0.25% pancreatin, and a cell culture medium were placed in a water-bath kettle at 37° C. for preheating; • 2) cells were observed under a microscope, a fusion degree was evaluated, and no bacterial and fungi pollution was confirmed; • 3) a culture solution was removed, the cells were washed with 5 mL of PBS and digested with 2 mL of the 0.25% trypsin, the digestion was terminated with 10 mL of the fresh cell culture medium, a culture dish was rinsed, and the cells were transferred to a 15-mL centrifuge tube; • 4) the collected cells were centrifuged at 1,000 rpm for 5 minutes; • 5) after the centrifugation, the supernatant was discarded, the cells were resuspended in 5 mL of the cell culture medium, 20 μL of the resuspended cells were aspirated, and the number and viability of viable cells were recorded; • 6) the cell culture medium was used and the cell density was adjusted (PC-9:10,000 cells/well, and 45 μL per well); • 7) in a 384-well plate, 45 μL of a cell suspension per well was transferred according to an experimental design figure; and • 8) the cells were incubated overnight at 37° C. and 5% CO2.
• 1) The compounds were diluted from the stock concentration to 10 mM with 100% DMSO (Trametinib was diluted to 1 mM), then 3-fold diluted into 10 points (5 μL of the diluted compounds with the concentration of 10 mM were transferred to 10 μL of the DMSO in an LDV plate), and centrifuged at 1,000 rpm/min for 1 minute; • 2) 5 μL of the diluted compounds of step 1) were transferred to an inter plate 1 containing 45 μL of the cell culture medium (the compounds were diluted from 1,000× to 100×); • 3) 5 μL of the diluted compounds of step 2) were transferred to an inter plate 2 containing 45 μL of the cell culture medium (the compounds were diluted from 100× to 10×); • 4) 5 μL of the compounds were pipetted from the inter plate 2 into a cell culture plate (the compounds were diluted from 10 folds to 1 fold), the final concentrations of the test compounds were 10,000 nM, 3333.33 nM, 1111.11 nM, 370.37 nM, 123.46 nM, 41.15 nM, 13.72 nM, 4.57 nM, 1.52 nM, and […], the solution was centrifuged at 1,000 rpm/min for 1 minute, and the final content of the DMSO was 0.1%; and • 5) the cells were treated in an incubator at 37° C. for 1 hour. […]

Sequence of KRAS-G12C/SOS1 (Q07889 whole entry, stated change not applied): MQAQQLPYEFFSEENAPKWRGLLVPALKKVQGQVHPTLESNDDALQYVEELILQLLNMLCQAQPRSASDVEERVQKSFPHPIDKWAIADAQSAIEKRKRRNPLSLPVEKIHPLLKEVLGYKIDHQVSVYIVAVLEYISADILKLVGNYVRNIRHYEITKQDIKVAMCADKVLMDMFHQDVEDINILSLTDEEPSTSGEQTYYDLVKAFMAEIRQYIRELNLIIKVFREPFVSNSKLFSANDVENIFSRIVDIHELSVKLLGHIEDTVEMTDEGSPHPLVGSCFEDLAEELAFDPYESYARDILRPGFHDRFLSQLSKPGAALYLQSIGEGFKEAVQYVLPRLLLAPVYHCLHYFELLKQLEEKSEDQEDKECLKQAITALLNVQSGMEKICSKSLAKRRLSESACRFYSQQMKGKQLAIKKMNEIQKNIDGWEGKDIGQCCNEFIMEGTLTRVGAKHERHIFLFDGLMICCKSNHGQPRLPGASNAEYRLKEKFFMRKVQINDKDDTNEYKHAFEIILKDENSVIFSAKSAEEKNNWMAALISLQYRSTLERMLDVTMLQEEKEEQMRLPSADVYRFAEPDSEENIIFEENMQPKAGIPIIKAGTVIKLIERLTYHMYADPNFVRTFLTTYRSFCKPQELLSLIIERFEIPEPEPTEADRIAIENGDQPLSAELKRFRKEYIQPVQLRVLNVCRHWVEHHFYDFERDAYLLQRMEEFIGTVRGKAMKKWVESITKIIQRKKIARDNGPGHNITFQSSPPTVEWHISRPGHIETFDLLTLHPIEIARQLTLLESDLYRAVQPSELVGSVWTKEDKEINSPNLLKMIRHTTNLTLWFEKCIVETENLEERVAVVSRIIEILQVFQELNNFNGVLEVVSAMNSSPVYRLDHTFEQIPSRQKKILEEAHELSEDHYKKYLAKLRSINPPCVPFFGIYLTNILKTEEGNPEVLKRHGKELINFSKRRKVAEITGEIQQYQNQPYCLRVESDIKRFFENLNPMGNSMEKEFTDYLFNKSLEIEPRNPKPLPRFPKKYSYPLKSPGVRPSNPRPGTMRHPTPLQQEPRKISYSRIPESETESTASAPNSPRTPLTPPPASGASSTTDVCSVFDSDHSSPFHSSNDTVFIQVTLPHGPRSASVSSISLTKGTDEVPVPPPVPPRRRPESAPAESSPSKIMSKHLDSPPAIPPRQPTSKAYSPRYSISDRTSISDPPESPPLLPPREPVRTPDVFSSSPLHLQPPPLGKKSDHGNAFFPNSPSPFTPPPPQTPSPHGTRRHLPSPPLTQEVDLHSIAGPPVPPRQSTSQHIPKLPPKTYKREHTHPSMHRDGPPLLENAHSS

For `CC(=O)N1CCC(O)(c2cc3c(N[C@H](C)c4cccc(C(F)F)c4F)ccnc3cn2)CC1` [Compound B-17], the results for the IC50 in assay [1] and in assay [2] were not above 100 nM and not above 300 nM, respectively.
The like results for `C[C@@H](Nc1ccnc2cnc(N3CCOCC3)cc12)c1cccc(C(F)F)c1F` [Compound B-21] were, in that order, not above 100 nM and 300 to 1000 nM.
Take `C[C@@H](Nc1ccnc2cnc(N3CCNCC3)cc12)c1cccc(C(F)F)c1F` [Compound B-22]: the results for the IC50 in assay [1] and in assay [2] were not above 100 nM and 300 to 1000 nM, respectively.
Turning to `CC(=O)N1CCN(c2cc3c(N[C@H](C)c4cccc(C(F)F)c4F)ccnc3cn2)CC1` [Compound B-23], the IC50 in assay [1] is not above 100 nM; in assay [2], not above 300 nM.
Taken in the same sequence, the figures for `C[C@@H](Nc1ccnc2cnc(N3CCC(O)CC3)cc12)c1cccc(C(F)F)c1F` [Compound B-24] were not above 100 nM and not above 300 nM.
Regarding `C[C@@H](Nc1ccnc2cnc(N3CC[C@@H](N)C3)cc12)c1cccc(C(F)F)c1F` [Compound B-31], the IC50 in assay [1] was not above 100 nM; in assay [2], 300 to 1000 nM.
Taken in the same sequence, the figures for `CC(=O)N[C@@H]1CCN(c2cc3c(N[C@H](C)c4cccc(C(F)F)c4F)ccnc3cn2)C1` [Compound B-32] were not above 100 nM and not above 300 nM.
As for `C[C@@H](Nc1ccnc2cnc(N3CC[C@H](N)C3)cc12)c1cccc(C(F)F)c1F` [Compound B-33], the IC50 in assay [1] was not above 100 nM; in assay [2], 300 to 1000 nM.
The like results for `C[C@@H](Nc1ccnc2cnc(N3CCC(C(=O)O)CC3)cc12)c1cccc(C(F)F)c1F` [Compound B-35] were, in that order, not above 100 nM and more than 1000 nM.
As to `CNC(=O)C1CCN(c2cc3c(N[C@H](C)c4cccc(C(F)F)c4F)ccnc3cn2)CC1` [Compound B-36], the IC50 was not above 100 nM in assay [1] and not above 300 nM in assay [2].
The like results for `CC(=O)NC1CCN(c2cc3c(N[C@H](C)c4cccc(C(F)F)c4F)ccnc3cn2)CC1` [Compound B-37] were, in that order, not above 100 nM and more than 1000 nM.
The like results for `C[C@@H](Nc1ccnc2cnc(N3CCS(=O)(=O)CC3)cc12)c1cccc(C(F)F)c1F` [Compound B-38] were, in that order, not above 100 nM and not above 300 nM.
As for `C[C@@H](Nc1ccnc2cnc(N3CCN(C)C(=O)C3)cc12)c1cccc(C(F)F)c1F` [Compound B-41], the IC50 is not above 100 nM in assay [1] and not above 300 nM in assay [2].
The like results for `CC(=O)N1CCN(c2cc3c(N[C@H](C)c4cccc(C(F)F)c4F)ccnc3cn2)CC1CO` (stereo partly shown) [Compound B-44] were, in that order, not above 100 nM and not above 300 nM.
Taken in the same sequence, the figures for `CC(=O)N1CCN(c2cc3c(N[C@H](C)c4cccc(C(F)F)c4F)ccnc3cn2)[C@@H](CO)C1` [Compound B-45] were not above 100 nM and not above 300 nM.
For the molecule `CC(=O)N1CCN(c2cc3c(N[C@H](C)c4cccc(C(F)F)c4F)ccnc3cn2)[C@H](CO)C1` [Compound B-47], the IC50 in assay [1] was not above 100 nM; in assay [2], not above 300 nM.
Consider `COC[C@@H]1CN(C(C)=O)CCN1c1cc2c(N[C@H](C)c3cccc(C(F)F)c3F)ccnc2cn1` [Compound B-48], for which the figures for the IC50 in assay [1] and in assay [2] were not above 100 nM and not above 300 nM, respectively.
The like results for `CC(=O)N1CCN(c2cc3c(N[C@H](C)c4cccc(C(F)(F)F)c4)ccnc3cn2)CC1` [Compound B-49] were, in that order, not above 100 nM and not above 300 nM.
As for `CC(=O)N1CCN(c2cc3c(N[C@H](C)c4cccc(C(F)(F)F)c4C)ccnc3cn2)CC1` [Compound B-50], the IC50 is not above 100 nM in assay [1] and not above 300 nM in assay [2].
Taken in the same sequence, the figures for `CC(=O)N1CCC(N)(c2cc3c(N[C@H](C)c4cccc(C(F)F)c4F)ccnc3cn2)CC1` [Compound B-51] were not above 100 nM and not above 300 nM.
As to `C[C@@H](Nc1ccnc2cnc(N3CCCS3(=O)=O)cc12)c1cccc(C(F)F)c1F` [Compound B-52], the IC50 in assay [1] is not above 100 nM; in assay [2], not above 300 nM.
With `CC(=O)N1CCN(c2cc3c(N[C@H](C)c4cccc(C(F)F)c4F)ccnc3cn2)C(=O)C1` [Compound B-53], the IC50 in assay [1] is not above 100 nM; in assay [2], 300 to 1000 nM.
As to `C[C@@H](Nc1ccnc2cnc(N3CCC(O)CC3=O)cc12)c1cccc(C(F)F)c1F` (stereo partly shown) [Compound B-54], the IC50 in assay [1] was not above 100 nM; in assay [2], 300 to 1000 nM.
For `CC(=O)N1CCN(c2cc3c(N[C@H](C)c4cccc(C(F)F)c4F)ccnc3cn2)[C@@H](CC#N)C1` [Compound B-56], the IC50 in assay [1] is not above 100 nM; in assay [2], not above 300 nM.
The like results for `C[C@@H](Nc1ccnc2cnc(N3CCCCS3(=O)=O)cc12)c1cccc(C(F)F)c1F` [Compound B-60] were, in that order, not above 100 nM and not above 300 nM.
Regarding `CC(=O)N1CCN(c2cc3c(N[C@H](C)c4cccc(C(F)F)c4F)ccnc3c(C)n2)CC1` [Compound B-62], the IC50 in assay [1] is not above 100 nM; in assay [2], not above 300 nM.
Taken in the same sequence, the figures for `CC(=O)N1CCN(c2cc3c(N[C@H](C)c4cccc(C(F)F)c4F)ccnc3c(C)n2)[C@@H](CO)C1` [Compound B-63] were not above 100 nM and not above 300 nM.
With `Cc1nc(N2CCCCS2(=O)=O)cc2c(N[C@H](C)c3cccc(C(F)F)c3F)ccnc12` [Compound B-65], the IC50 is not above 100 nM in assay [1] and 300 to 1000 nM in assay [2].
For the molecule `CC(=O)N1C2CCC1CC(c1cc3c(N[C@H](C)c4cccc(C(F)F)c4F)ccnc3c(C)n1)C2` (stereo partly shown) [Compound B-67], the IC50 in assay [1] was not above 100 nM; in assay [2], 300 to 1000 nM.

For the origin of these results see patent publication US20250042857A1, “SOS1 Inhibitor With Pyrido-Fused Six-Membered Ring Structure” (HAIHE BIOPHARMA CO., LTD., priority 2021, published 2025).
